Laboratory results from article PMC2853924 (Journal of medicinal chemistry, 2010).
Where two headings read alike, the source gives them in different places.

Key:
[1] = biological target: σ1 receptor (Cavia porcellus, UniProt Q60492); assay type: binding, guinea pig
[2] = biological target: T1, σ2 receptor (Rattus norvegicus, UniProt Q5U3Y7); test: σ2 receptor binding assay, [3H]DTG, rat liver membrane homogenates
T1 sequence (Q5U3Y7 1-176): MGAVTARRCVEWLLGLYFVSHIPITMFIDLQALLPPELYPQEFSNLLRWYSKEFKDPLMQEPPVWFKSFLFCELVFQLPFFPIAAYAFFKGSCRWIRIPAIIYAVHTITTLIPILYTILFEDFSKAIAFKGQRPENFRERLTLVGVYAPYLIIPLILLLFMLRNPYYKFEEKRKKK

[3] = biological target: T2, Torpedo VAChT (Tetronarce californica, UniProt P81721); details: for VAChT/σ selectivity (in words): based on selectivity index; for VAChT/sigma selectivity index (selectivity ratio): Ki (σ1 or σ2)/Ki (VAChT)
T2 sequence (P81721 1-515): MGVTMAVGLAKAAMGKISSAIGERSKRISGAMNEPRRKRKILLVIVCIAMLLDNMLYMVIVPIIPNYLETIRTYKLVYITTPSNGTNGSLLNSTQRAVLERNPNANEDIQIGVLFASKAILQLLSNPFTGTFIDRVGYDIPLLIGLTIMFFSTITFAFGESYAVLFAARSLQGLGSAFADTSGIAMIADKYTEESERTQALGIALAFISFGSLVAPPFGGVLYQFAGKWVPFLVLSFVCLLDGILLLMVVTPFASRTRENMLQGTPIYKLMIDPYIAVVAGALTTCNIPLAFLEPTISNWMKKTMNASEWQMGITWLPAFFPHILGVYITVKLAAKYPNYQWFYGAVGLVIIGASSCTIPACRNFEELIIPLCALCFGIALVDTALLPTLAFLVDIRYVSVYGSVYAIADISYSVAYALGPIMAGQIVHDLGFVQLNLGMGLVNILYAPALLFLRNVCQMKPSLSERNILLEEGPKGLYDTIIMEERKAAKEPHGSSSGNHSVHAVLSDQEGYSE

[4] = biological target: T2, Torpedo VAChT; details: read-out: VAChT (Ki [nM]), cited from earlier work

σ1 receptor, sequence (Q60492 whole entry): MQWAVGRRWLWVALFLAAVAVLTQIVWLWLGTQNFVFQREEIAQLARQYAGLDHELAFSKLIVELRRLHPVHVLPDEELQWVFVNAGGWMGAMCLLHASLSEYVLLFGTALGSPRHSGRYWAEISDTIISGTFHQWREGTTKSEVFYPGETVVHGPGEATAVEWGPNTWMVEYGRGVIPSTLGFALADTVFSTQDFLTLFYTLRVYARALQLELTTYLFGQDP

CCOC(=O)C1CCN([C@@H]2Cc3ccccc3C[C@H]2O)CC1.Cl (relative stereo) [Compound 34e, trans-3-[4-Ethoxycarbonylpiperidyl]-2-hydroxy-1,2,3,4-tetrahydronaphthalene hydrochloride]
Selectivity Index Ki-σ1/Ki-VAChT ([1]; Ki (σ1)/Ki (VAChT)): >14.6
Selectivity Index Ki-σ2/Ki-VAChT [2]: >14.6

Cl.Nc1cccc2c1C[C@@H](O)[C@H](N1CCC(C(=O)c3cccs3)CC1)C2 [Compound 31f, 8-Amino-3-[4-(thien-2-yl)carbonylpiperidyl]-2-hydroxy-1,2,3,4-tetrahydronaphthalene hydrochloride]
Selectivity Index Ki-σ1/Ki-VAChT [1]: >7.5
Selectivity Index Ki-σ2/Ki-VAChT [2]: >7.5

Cl.O=C(C1CCN([C@@H]2Cc3ccccc3C[C@H]2O)CC1)N1CCC(Cc2ccccc2)CC1 (relative stereo) [Compound 34c, trans-3-[4-(4-Benzylpiperidyl)carbonylpiperidyl]-2-hydroxy-1,2,3,4-tetrahydronaphthalene hydrochloride]
Selectivity Index Ki-σ2/Ki-VAChT [2]: >416.7

Cl.O=C(c1ccc(I)s1)C1CCN([C@@H]2CCCC[C@H]2O)CC1 [Compound 27h, 2-[4-(5-Iodothien-2-yl)carbonylpiperidinyl]cyclohexanol hydrochloride]
affinity for σ1 receptors (class in words) [1]: high (high (Ki = 1–10 nM))

Cl.O=C(c1ccc(I)s1)C1CCN([C@@H]2Cc3ccccc3C[C@H]2O)CC1 (relative stereo) [Compound 28h, trans-3-[4-(5-Iodothienylcarbonyl)piperidinyl]-2-hydroxy-1,2,3,4-tetrahydronaphthalene hydrochloride]
VAChT/σ selectivity (in words) [3]: high VAChT/σ selectivity

Cl.O=C(c1ccc(Br)s1)C1CCN([C@@H]2Cc3ccccc3C[C@H]2O)CC1 (relative stereo) [Compound 28g, trans-3-[4-(5-Bromothienylcarbonyl)piperidinyl]-2-hydroxy-1,2,3,4-tetrahydronaphthalene hydrochloride]
VAChT/σ selectivity (in words) [3]: high VAChT/σ selectivity

Cl.Nc1cccc2c1C[C@@H](N1CCC(C(=O)c3ccc(F)cc3)CC1)[C@H](O)C2 [Compound 30b, 5-Amino-3-[4-(p-fluorobenzoyl)piperidinyl]-2-hydroxy-1,2,3,4,-tetrahydronaphthalene hydrochloride]
Selectivity Index Ki-σ1/Ki-VAChT [1]: >416.7
Selectivity Index Ki-σ2/Ki-VAChT [2]: >416.7

Cl.O=C(C1CCN([C@@H]2Cc3ccccc3C[C@H]2O)CC1)N1CCC(c2ccccc2)CC1 (relative stereo) [Compound 34b, trans-3-[4-(4-Phenylpiperidyl)carbonylpiperidyl]-2-hydroxy-1,2,3,4-tetrahydronaphthalene hydrochloride]
Selectivity Index Ki-σ2/Ki-VAChT [2]: >483.1

Cl.Nc1cccc2c1C[C@@H](N1CCC(C(=O)c3ccc(Br)s3)CC1)[C@H](O)C2 [Compound 30g, 5-Amino-3-[4-(5-bromothien-2-yl)carbonylpiperidinyl]-2-hydroxy-1,2,3,4-tetrahydronaphthalene hydrochloride]
Selectivity Index Ki-σ1/Ki-VAChT [1]: >2439.0
Selectivity Index Ki-σ2/Ki-VAChT [2]: >2439.0
VAChT/sigma selectivity index (selectivity ratio) [3]: greater than 1000

Cl.O=C(C1CCN([C@@H]2Cc3ccccc3C[C@H]2O)CC1)N1CCCCC1 (relative stereo) [Compound 34a, Trans-3-[4-(piperidyl)carbonylpiperidyl]-2-hydroxy-1,2,3,4-tetrahydronaphthalene hydrochloride]
Selectivity Index Ki-σ1/Ki-VAChT ([1]; Ki (σ1)/Ki (VAChT)): >32.3
Selectivity Index Ki-σ2/Ki-VAChT [2]: >32.3

Cl.O=C(c1ccccc1)C1(c2ccccc2)CCN([C@@H]2Cc3ccccc3C[C@H]2O)CC1 (relative stereo) [Compound 22a, trans-3-(4-Benzoyl-4-phenylpiperidinyl)-2-hydroxy-1,2,3,4-tetrahydronaphthalene hydrochloride]
fold less potent at VAChT than benzovesamicol (2) ([3]; relative to benzovesamicol (2)): 30 fold

Cl.Nc1cccc2c1C[C@@H](N1CCC(C(=O)c3cccs3)CC1)[C@H](O)C2 [Compound 30f, 5-Amino-3-[4-(thien-2-yl)carbonylpiperidyl]-2-hydroxy-1,2,3,4-tetrahydronaphthalene hydrochloride]
Selectivity Index Ki-σ1/Ki-VAChT ([1]; Ki (σ1)/Ki (VAChT)): >204.1
Selectivity Index Ki-σ2/Ki-VAChT [2]: >204.1

Nc1cccc2c1CC(N1CCC(c3ccccc3)CC1)C(O)C2 (stereo not shown) [Compound 3, reference compound]
Ki ([4]; Torpedo synaptic vesicles): 0.0065 ± 0.0005 nM

O=C(c1ccc(F)cc1)C1CCN([C@@H]2Cc3ccccc3C[C@H]2O)CC1 (relative stereo) [Compound 28b, trans-3-[4-(4-fluorobenzoyl)piperidinyl]-2-hydroxy-1,2,3,4-tetrahydronaphthalene]
Ki [4]: 2.7 ± 0.4 nM

Cl.O=C(C1CCN([C@@H]2Cc3ccccc3C[C@H]2O)CC1)N1CCN(Cc2ccccc2)CC1 (relative stereo) [Compound 34d, trans-3-[4-(4-Benzylpiperazinyl)carbonylpiperidyl]-2-hydroxy-1,2,3,4-tetrahydronaphthalene hydrochloride]
Selectivity Index Ki-σ2/Ki-VAChT [2]: >480.8
VAChT/σ selectivity (in words) [3]: moderate selectivity

Cl.O=C(c1ccccc1)C1(c2ccccc2)CCN([C@@H]2CCCC[C@H]2O)CC1 [Compound 20, 2-(4-Benzoyl-4-phenylpiperidinyl)cyclohexanol hydrochloride]
fold lower affinity for VAChT than vesamicol (1) ([3]; relative to vesamicol (1)): 35 fold

Cl.Nc1cccc2c1C[C@@H](N1CCC(C(=O)c3ccc(Br)cc3)CC1)[C@H](O)C2 [Compound 30c, 5-Amino-3-[4-(p-bromobenzoyl)piperidinyl]-2-hydroxy-1,2,3,4,-tetrahydronaphthalene hydrochloride]
VAChT/sigma selectivity index (selectivity ratio) [3]: greater than 500
